Drawing on PubChem BioAssay (NCI), this text covers TGI and GI50 for 28 molecules.

As a reminder, the TGI is the concentration at which net growth stops. Low readings indicate more potent growth arrest, high ones less potent growth arrest. Broadly, the GI50 is the concentration at which growth is held to half of that of the control.

SMILES strings stand for the structures. Where “and” joins values, the source holds several entries; their conditions need not be identical. Equal entries are not always repeated.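 Compound exposure: 48 hours, 5 concentrations, 96-well plates. Here, GI50 denotes the concentration required for 50% inhibition of growth. Definition used: TGI = concentration required for complete inhibition of growth.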

One assay relates to DLD-1 colon. The assay can be described thus: DTP human tumour cell line panel, 48 h.
Regarding `Cc1ccc(C)c(N=C2NC(=O)C(CC(=O)Nc3ccc(Cl)cc3Cl)S2)c1` (stereo unspecified), the TGI is > 100 µM.
On to `C/C(CC(=O)Nc1cccc(Cl)c1C)=N\NC(=O)c1ccncc1`, for which the TGI is > 100 µM.
As for `Cc1cc(NS(=O)(=O)c2ccc(Nc3c4ccccc4nc4c(C(=O)N5CCN(CCO)CC5)ccc(Cl)c34)cc2)no1`, the TGI was > 100 µM.
Still for that read-out and setting: next, `O=C(O)CC(NC(=O)CP(=O)(O)O)C(=O)O` (stereo unspecified): 9920 µM.
As to `Cc1nc([N+](=O)[O-])cn1CC(=N)N`, the TGI is > 100 µM.
Still for that read-out and setting: next, `COC(=O)/C=C/c1c(CC=C(C)C)ncn1C`: > 100 µM.
Consider `O=S(=O)(c1ccccc1)C1CN2OC1(S(=O)(=O)c1ccccc1)CC2c1ccc(Br)cc1` (stereo unspecified), for which the TGI was > 100 µM.
For `Cc1cc(C)nc(NS(=O)(=O)c2ccc(NC(=O)c3cccc4c(Nc5ccc(S(N)(=O)=O)cc5)c5ccccc5nc34)cc2)n1`, the TGI is > 100 µM.
Consider `Cc1cc(S(=O)(=O)O)c(NC(=O)C(=O)Cc2cc(=O)oc3cc(O)ccc23)cc1Cl`, for which the TGI was > 100 µM.

The next assay has as its system MOLT-4 leukemia. The assay can be described thus: DTP human tumour cell line panel, 48 h.
In the case of `CC(C)C(=O)NS(=O)(=O)c1ccccc1`, the TGI is > 100 µM.
As for `COC1(OC)CC2C(=O)N(Cc3ccccc3)C1C=C2S(=O)(=O)c1ccccc1` (stereo unspecified), the TGI was 50.3 µM.
As for `CC(=O)[O][Ga]([Br])[O]C(C)=O`, the GI50 was > 100 µM and the TGI was > 100 µM.
For the molecule `COc1cc2c(OC)cc1CSCc1sc(C)c(c1Br)CSC2`, the TGI was > 100 µM.
`CC(C)N(C(=O)C12C3C4C1(I)C1C2C3(I)C41C(=O)N(C(C)C)C(C)C)C(C)C` (stereo unspecified): the TGI was > 100 µM.
Take `Cc1cccc(C)c1NC(=O)C(=O)C(C(=O)c1ccccc1-c1ccccc1)C1OC(=O)c2ccccc21` (stereo unspecified): the TGI was 58.1 µM.
On to `CC1COC(C)(C)P(=O)(c2ccccc2)C1` (stereo unspecified), for which the TGI is > 100 µM.
Take `Cc1ccc(S(=O)(=O)c2ccc(N)cc2)cc1`: the TGI is > 100 µM.
`CCOP(=O)(OCC)OC1C=CC2CCC1C2` (stereo unspecified): the TGI was > 100 µM.
Regarding `COC(=O)[C@H]1C=C[C@@H](C)n2c(=O)c3cc4ccccc4cc3c(=O)n21`, the TGI is > 100 µM.
The same measure, in the same setting: next, `COc1cc(C=O)c(-c2cc(OC)c(OC)cc2C=O)cc1OC`: > 100 µM; `N#CC(C(=O)C(=O)Nc1ccc(Cl)cc1)c1ccccc1` (stereo unspecified): > 100 µM.
In the case of `COc1c[c]([Hg][O]C(C)=O)c(OC)c(NC(=O)CC(C)=O)[c]1[Hg][O]C(C)=O`, the GI50 is 2.32 µM and the TGI was 6.85 µM.
In the case of `COC(=O)/C=C1\CCC(C)O1` (stereo unspecified), the TGI was > 100 µM.
Still for that read-out and setting: next, `O=C(/C=C/c1ccccc1Cl)NC1C=Nc2ccc([N+](=O)[O-])cc2NC1` (stereo unspecified): 49.3 µM.
As to `CC[C@H]1CN2CCc3cc(OC)c(OC)cc3[C@@H]2C[C@@H]1C[C@H]1NCCc2c1[nH]c1ccc(O)cc21`, the GI50 is 0.0117 µM and 0.0272 µM.
On to `CCCO/S(=N\S(=O)(=O)c1ccccc1)c1ccccc1[N+](=O)[O-]` (stereo unspecified), for which the TGI was > 100 µM.
As for `Cc1ccc(C)c(N=C2NC(=O)C(CC(=O)Nc3ccc(Cl)cc3Cl)S2)c1` (stereo unspecified), the TGI was > 100 µM.
Regarding `C/C(CC(=O)Nc1cccc(Cl)c1C)=N\NC(=O)c1ccncc1`, the TGI is > 100 µM.
Turning to `Cc1cc(NS(=O)(=O)c2ccc(Nc3c4ccccc4nc4c(C(=O)N5CCN(CCO)CC5)ccc(Cl)c34)cc2)no1`, the TGI is > 100 µM.
The molecule `O=C(O)CC(NC(=O)CP(=O)(O)O)C(=O)O` (stereo unspecified) registered a TGI of 6910 µM.
On the same count and under the same terms, next, `Cc1nc([N+](=O)[O-])cn1CC(=N)N`: > 100 µM; `COC(=O)/C=C/c1c(CC=C(C)C)ncn1C`: > 100 µM.
On the same count and under the same terms, next, `O=S(=O)(c1ccccc1)C1CN2OC1(S(=O)(=O)c1ccccc1)CC2c1ccc(Br)cc1` (stereo unspecified): > 100 µM.
For `CC(=O)O[C@H]1CCC2[C@@H]3CCC4Nc5[nH]ncc5C[C@]4(C)C3CC[C@@]21C` (stereo partly specified), the TGI is 58.6 µM.
`Cc1cc(C)nc(NS(=O)(=O)c2ccc(NC(=O)c3cccc4c(Nc5ccc(S(N)(=O)=O)cc5)c5ccccc5nc34)cc2)n1` registered a TGI of 29.3 µM.
Regarding `Cc1cc(S(=O)(=O)O)c(NC(=O)C(=O)Cc2cc(=O)oc3cc(O)ccc23)cc1Cl`, the TGI is > 100 µM.
With `C=C1C(=O)O[C@H]2[C@H]1CC/C(COC(=O)/C=C\C(=O)NCc1ccc(Cn3c(=O)sn(CCCC)c3=O)cc1)=C\CC[C@@]1(C)O[C@@H]21`, the GI50 was 0.34 µM and the TGI amounted to 1.52 µM.

Another assay has as its system KM12 colon. The assay can be described thus: DTP human tumour cell line panel, 48 h.
In the case of `CC(C)C(=O)NS(=O)(=O)c1ccccc1`, the TGI was > 100 µM.
Still for that read-out and setting: then `COC1(OC)CC2C(=O)N(Cc3ccccc3)C1C=C2S(=O)(=O)c1ccccc1` (stereo unspecified), with 31.6 µM.
Regarding `CC(=O)[O][Ga]([Br])[O]C(C)=O`, the GI50 is > 100 µM and the TGI is > 100 µM.
Consider `COc1cc2c(OC)cc1CSCc1sc(C)c(c1Br)CSC2`, for which the TGI was > 100 µM.
As to `CC(C)N(C(=O)C12C3C4C1(I)C1C2C3(I)C41C(=O)N(C(C)C)C(C)C)C(C)C` (stereo unspecified), the TGI was > 62.5 µM.
Take `Cc1cccc(C)c1NC(=O)C(=O)C(C(=O)c1ccccc1-c1ccccc1)C1OC(=O)c2ccccc21` (stereo unspecified): the TGI was found to be 48.9 µM.
As for `CC1COC(C)(C)P(=O)(c2ccccc2)C1` (stereo unspecified), the TGI is > 100 µM.
`Cc1ccc(S(=O)(=O)c2ccc(N)cc2)cc1`: the TGI is > 100 µM.
On to `CCOP(=O)(OCC)OC1C=CC2CCC1C2` (stereo unspecified), for which the TGI is > 100 µM.
Turning to `COC(=O)[C@H]1C=C[C@@H](C)n2c(=O)c3cc4ccccc4cc3c(=O)n21`, the TGI was > 100 µM.
In the case of `COc1cc(C=O)c(-c2cc(OC)c(OC)cc2C=O)cc1OC`, the TGI is > 100 µM.
As for `N#CC(C(=O)C(=O)Nc1ccc(Cl)cc1)c1ccccc1` (stereo unspecified), the TGI was > 100 µM.
As to `COc1c[c]([Hg][O]C(C)=O)c(OC)c(NC(=O)CC(C)=O)[c]1[Hg][O]C(C)=O`, the GI50 is > 43.2 µM and the TGI is > 62.1 µM.
In the case of `COC(=O)/C=C1\CCC(C)O1` (stereo unspecified), the TGI is > 100 µM.
Regarding `O=C(/C=C/c1ccccc1Cl)NC1C=Nc2ccc([N+](=O)[O-])cc2NC1` (stereo unspecified), the TGI was > 100 µM.
Take `CC[C@H]1CN2CCc3cc(OC)c(OC)cc3[C@@H]2C[C@@H]1C[C@H]1NCCc2c1[nH]c1ccc(O)cc21`: the GI50 was 0.0507 µM and 0.0994 µM; the TGI was 0.283 µM and 1.37 µM and 0.519 µM.
As to `CCCO/S(=N\S(=O)(=O)c1ccccc1)c1ccccc1[N+](=O)[O-]` (stereo unspecified), the TGI was > 100 µM.
Consider `Cc1ccc(C)c(N=C2NC(=O)C(CC(=O)Nc3ccc(Cl)cc3Cl)S2)c1` (stereo unspecified), for which the TGI is > 100 µM.
With `C/C(CC(=O)Nc1cccc(Cl)c1C)=N\NC(=O)c1ccncc1`, the TGI was > 100 µM.
With `Cc1cc(NS(=O)(=O)c2ccc(Nc3c4ccccc4nc4c(C(=O)N5CCN(CCO)CC5)ccc(Cl)c34)cc2)no1`, the TGI is > 100 µM.
`O=C(O)CC(NC(=O)CP(=O)(O)O)C(=O)O` (stereo unspecified): the GI50 is 95.5 µM and the TGI is > 10000 µM.
As to `COC(=O)/C=C/c1c(CC=C(C)C)ncn1C`, the TGI is > 100 µM.
